The values below come from ChEMBL document CHEMBL1137599, “Discovery of uracil-based histone deacetylase inhibitors able to reduce acquired antifungal resistance and trailing growth in Candida albicans” (Bioorg Med Chem Lett, 2007).

In experiment [1] the test system is Candida albicans. The experiment can be described thus: Effect of compound on Candida albicans sensitivity to Fluconazole: Minimum inhibitory concentration required to inhibit the growth of 50% of isolates after 24h. Type of experiment: functional.
Experiment [2] deals with Candida albicans. The experiment can be described thus: Effect of compound on Candida albicans sensitivity to Fluconazole: Minimum inhibitory concentration required to inhibit the growth of 90% of isolates after 24h. Format: functional.
Experiment [3] has as its system Candida albicans. The experiment can be described thus: microbe, parasite or virus in culture. Format: functional. The following applies: 48 h.
Description: Effect of compound on Candida albicans sensitivity to Fluconazole: Minimum inhibitory concentration required to inhibit the growth of 50% of isolates after 48h.
Experiment [4] relates to Candida albicans. Kind of experiment: Effect of compound on Candida albicans sensitivity to Fluconazole: Minimum inhibitory concentration required to inhibit the growth of 90% of isolates after 48h. Type of experiment: functional.
The next experiment addresses Histone deacetylase 1 (Mus musculus, UniProt O09106). Kind of experiment: Inhibition of mouse HDAC1 (mean).
The next experiment has as its target T1, Histone deacetylase HD2 (Zea mays, UniProt Q94F81).
T1 sequence (Q94F81 whole entry): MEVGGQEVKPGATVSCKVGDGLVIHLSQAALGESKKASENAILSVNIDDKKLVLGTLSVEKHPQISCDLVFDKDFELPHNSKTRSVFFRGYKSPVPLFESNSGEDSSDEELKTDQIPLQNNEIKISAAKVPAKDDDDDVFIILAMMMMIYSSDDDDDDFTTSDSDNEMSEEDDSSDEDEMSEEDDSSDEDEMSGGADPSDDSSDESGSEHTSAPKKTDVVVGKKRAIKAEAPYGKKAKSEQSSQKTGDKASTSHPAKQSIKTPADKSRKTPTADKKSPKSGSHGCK
Kind of experiment: Inhibition of maize HD2 (mean).

The target in a further experiment is Histone deacetylase HD1B (Zea mays, UniProt Q9ZTP8). The experiment can be described thus: Inhibition of maize HD1-B (mean).
Histone deacetylase HD1B, sequence (Q9ZTP8 whole entry): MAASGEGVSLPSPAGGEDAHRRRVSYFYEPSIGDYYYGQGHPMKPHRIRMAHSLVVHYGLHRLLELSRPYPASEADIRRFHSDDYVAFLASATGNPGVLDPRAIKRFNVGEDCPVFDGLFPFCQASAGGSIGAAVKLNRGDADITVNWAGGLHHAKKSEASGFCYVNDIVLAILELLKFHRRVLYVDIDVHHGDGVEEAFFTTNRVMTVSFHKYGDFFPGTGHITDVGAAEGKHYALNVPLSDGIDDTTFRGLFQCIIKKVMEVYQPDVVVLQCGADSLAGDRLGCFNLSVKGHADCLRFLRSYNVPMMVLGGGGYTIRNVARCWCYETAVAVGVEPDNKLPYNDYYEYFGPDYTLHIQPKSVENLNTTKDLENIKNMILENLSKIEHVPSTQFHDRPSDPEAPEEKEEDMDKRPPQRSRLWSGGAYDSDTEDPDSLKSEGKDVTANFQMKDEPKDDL
The target in experiment [5] is Histone deacetylase HD1-A (Zea mays). Kind of experiment: Inhibition of maize HD1-A (mean).

In brackets after ≈: the same amount, converted by molar mass.

Histone deacetylase 1, sequence (O09106 whole entry): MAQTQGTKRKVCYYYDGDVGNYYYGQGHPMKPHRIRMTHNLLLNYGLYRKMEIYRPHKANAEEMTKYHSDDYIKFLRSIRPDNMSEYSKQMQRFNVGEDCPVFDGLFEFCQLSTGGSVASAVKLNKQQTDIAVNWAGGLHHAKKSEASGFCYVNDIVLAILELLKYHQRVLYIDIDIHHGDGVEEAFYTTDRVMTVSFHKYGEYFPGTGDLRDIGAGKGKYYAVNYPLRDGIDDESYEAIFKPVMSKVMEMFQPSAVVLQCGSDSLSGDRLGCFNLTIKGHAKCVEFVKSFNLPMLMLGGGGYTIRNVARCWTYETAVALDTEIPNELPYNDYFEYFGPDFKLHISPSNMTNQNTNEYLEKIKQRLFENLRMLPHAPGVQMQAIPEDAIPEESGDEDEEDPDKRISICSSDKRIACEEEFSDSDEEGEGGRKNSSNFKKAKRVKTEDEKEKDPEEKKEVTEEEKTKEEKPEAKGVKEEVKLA

As to `O=C(CCCCSc1nc(-c2ccccc2)cc(=O)[nH]1)NO`, the MIC50 in the experiment on Candida albicans [1] and with Candida albicans [3] was 0.5 µg/mL (≈ 1.57 µM) throughout. Besides, the MIC90 (in general, an inhibitory concentration at the 90% level, which refers to growth in some studies and to a panel of isolates in others) against Candida albicans [2] came out at 4 µg/mL (≈ 12.5 µM); in the experiment with Candida albicans [4] it was 12 µg/mL (≈ 37.6 µM).
As for `O=C(CCCCSc1nc(-c2cccc(Cl)c2)cc(=O)[nH]1)NO`, the IC50 (as a rule, the point on the concentration scale where inhibition reaches its midpoint) is 0.013 µg/mL (≈ 0.0367 µM) against Histone deacetylase 1, 0.006 µg/mL (≈ 0.017 µM) on Histone deacetylase HD2 and 0.004 µg/mL (≈ 0.0113 µM) against Histone deacetylase HD1B. The MIC50 in the experiment on Candida albicans [1] came to 0.44 µg/mL (≈ 1.24 µM); against Candida albicans [3], 1 µg/mL (≈ 2.83 µM). Also, the results for the MIC90 against Candida albicans [2] and against Candida albicans [4] were 3.42 µg/mL (≈ 9.67 µM) and 8 µg/mL (≈ 22.6 µM), respectively.
Turning to `O=C(CCCCSc1nc(-c2ccc(Cl)cc2)cc(=O)[nH]1)NO`, the IC50 turned out to be 0.018 µg/mL (≈ 0.0509 µM) against Histone deacetylase 1, 0.006 µg/mL (≈ 0.017 µM) on Histone deacetylase HD2, 0.004 µg/mL (≈ 0.0113 µM) at Histone deacetylase HD1B and 0.001 µg/mL (≈ 0.00283 µM) in experiment [5]. Moreover, the values for the MIC50 with Candida albicans [1] and against Candida albicans [3] were 0.5 µg/mL (≈ 1.41 µM) and 1 µg/mL (≈ 2.83 µM), respectively. The results for the MIC90 against Candida albicans [2] and with Candida albicans [4] were 2 µg/mL (≈ 5.65 µM) and 16 µg/mL (≈ 45.2 µM), respectively.
`O=C(CCCCCSc1nc(Cc2ccccc2)cc(=O)[nH]1)NO`: the results for the MIC50 in the experiment on Candida albicans [1] and against Candida albicans [3] were 0.5 µg/mL (≈ 1.44 µM) and 0.625 µg/mL (≈ 1.8 µM), respectively. Also, the MIC90 in the experiment with Candida albicans [2] is 4 µg/mL (≈ 11.5 µM); with Candida albicans [4] it was 12 µg/mL (≈ 34.5 µM).
Turning to `OC(Cn1cncn1)(Cn1cncn1)c1ccc(F)cc1F` [FLUCONAZOLE], the MIC50 was determined as 1.45 µg/mL (≈ 4.73 µM) in the experiment on Candida albicans [1] and 2.5 µg/mL (≈ 8.16 µM) against Candida albicans [3]. Besides, the MIC90 against Candida albicans [2] was 3.6 µg/mL (≈ 11.8 µM); with Candida albicans [4], 11 µg/mL (≈ 35.9 µM).
Turning to `O=C(CCCCCCC(=O)Nc1ccccc1)NO` [VORINOSTAT], the results for the 50% inhibitory concentration (IC50) at Histone deacetylase HD2 and against Histone deacetylase HD1B were 0.013 µg/mL (≈ 0.0492 µM) and 0.007 µg/mL (≈ 0.0265 µM), respectively.
